1 substance from patent publication US5821353A, “DNA encoding 1,3 beta-D glucan synthase subunits” (Merck & Co., Inc., priority 1996, dated 1998) can be followed below.

Assay [1] concerns S. cerevisiae R560-1 / R560-1C (fks1-2). Kind of assay: liquid MIC assay of resistant clone. In kind it is cell-based, Saccharomyces cerevisiae. The method, then: Strain W303-1A was transformed by the spheroplast method (MYG) with yeast genomic libraries obtained from D. Botstein (1982. Cell, 28:145-154). Transformants selected on uracil dropout medium were pooled and stored at -80° C. in 20% glycerol. After determining the titer (colony forming units(CFU)/ml), aliquots of the stocks were spread at .congruent.5×10^3 CFU per plate onto uracil dropout medium containing the semisynthetic echinocandin L-733,560 at 0.5 mcg/ml or 1.25 mcg/ml. This concentration of L-733,560 is sufficient to select for resistant clones. Twenty-seven drug resistant colonies were isolated. […] Briefly, L-733,560 was serially diluted across the wells of a sterile microtiter plate such that the concentration in each row ranged from 16 to 0.03 mcg/ml in 2-fold increments after an equal volume of a cell suspension in liquid uracil dropout medium was added. After 24 h at 30° C., plates were read in a spectrophotometer at a wavelength of 600 nm, and the percent of control growth in each well (relative to a no-drug control well) was calculated. […]
Because this strain was isolated as a transfornant from the genomic library, it was expected that resistance would be due to the gene residing on the plasmid contained in R560-1. […] R560-1C was mated to the wild type strain W303-1B, sporulated, dissected, and the sensitivity to L-733,560 quantitated by liquid MIC assay. […]

Assay [2] has as its system S. cerevisiae YFK798 (fks1-1 + CN). The experiment in a line: primary screen, zone size on agar (calcineurin counter screen). Type of assay: cell-based, Saccharomyces cerevisiae. To be noted: 20 ng FK506, 10 mcg CsA, 10 mcg L733,560, 20 mcg aculeacin, 20 mcg papulacandin, 48 h. The method, then: Counter screening strains were devised for identifying calcineurin inhibitors. Overexpression of yeast calcineurin in the fks1-1 mutant (strain YFK798) constitutes the most general of these. […] Glucan synthase inhibitors show neither effect and thus can be distinguished from calcineurin inhibitors.
Each strain is grown at 28°-30° C. in YPAD/10 mM CaCl2 medium with shaking at 220 rpm (to mid or late log phase). The cultures are diluted 1:10 with water, and the OD values of the dilutions are measured at 600 nm (against a blank of YPAD/10 mM CaCl2 similarly diluted 1:10 in water). The OD value is multiplied by 10 to estimate the OD of the culture. Portions (100 ml) of YPAD/10 mM CaCl2 medium containing 1.5% agar, equilibrated at 45° C. in a water bath, are seeded with culture such that the final cell density in the agar would have an OD value of 0.015 (i.e., 3×10^6 cfu/ml; a sample calculation is provided below). The seeded agar is poured into 500 cm^2 Nunc plates. Once the agar plates have solidified, 10 mcL aliquots of samples containing test compounds, such as fermentation extracts, are dissolved in water, 100% methanol or ethanol, or up to 50% DMSO and are placed on each member of the two-plate set in 11 by 8 arrays.
The plates are incubated for 48 h at 28°-30° C. Diameters of the zones are read to the outermost edge and recorded in mm. The clarity of the zone is reported as clear (no designation), hazy (h), or very hazy (vh). Very hazy zones are best seen by viewing the plate under an elevated light placed between the assay dish and a dark wall.
For orientation: A counterscreen serves to expose hits that act by an unwanted route or on another target.

For assay [3], the system named is 1,3-beta-D glucan synthase from MY2144 (fks 1-3). The experiment in a line: 1,3-beta-D glucan synthase assay, membrane preparation. Type of assay: biochemical, Saccharomyces cerevisiae. To be noted: membranes of MY2144 (fks 1-3). The method, then: (§1) Cell free extracts were prepared from mutant and wild type cells grown to logarithmic phase as previously described (Kang and Cabib, PNAS, 83:5808-5812, 1986). After homogenization with glass beads, the unbroken cells and debris were removed by a low speed centrifugation (1,000×gfor 5 min). The supernatant fluids were centrifuged at 100,000×g for 60 min and the pellets were washed with 2.5 ml (per gram of wet cells) of buffer containing 0.05M potassium phosphate (pH 7.5), 0.5 mM DTT, and 1.0 mM PMSF. The washed pellet was resuspended in the same buffer containing 5% glycerol. This served as the microsomal membranes source containing both chitin and glucan synthase enzymatic activities. The standard 1,3-beta-D glucan synthase reaction was initiated by mixing 35 mcg protein in cocktail I, which included TEK buffer (125 mM Tris chloride, pH 7.5, 31 mM KF, and 1 mM EDTA), 25% PBS, pH 7.0, 3.31 mcM GTP-gamma-S, and 0.25% BSA in a total volume of 69 mcL, with cocktail II, which included 4 units alpha-amylase, 25 mcg UDP-glucose, and 1 microCi UDP-^3 H-glucose, in a total volume of 11 mcL. Following 150 minutes of incubation at 30° C., the incorporation of UDP-^[…] into glucan was measured after precipitation with trichloroacetic acid.
(§2) Crude enzyme preparations associated with cell membranes were tested for glucan and chitin synthesis activities. […]

Assay [4] deals with 1,3-beta-D glucan synthase from MY2145 (fks 1-4). Described as above. In kind it is biochemical, Saccharomyces cerevisiae. Conditions: membranes of MY2145 (fks 1-4). On the procedure: as §1, §2

Consider dihydropapulacandin [L-687,781], for which, in assay [1], the “resistance phenotype in liquid MIC assay” value is on record as “resistance phenotype”. Besides, in assay [2], the “Primary Screen Zone size (mm)” value was 26-28 mm. Also, the figures for the 50% inhibitory concentration (IC50) in assay [3] and in assay [4] were 11.1 µg/mL and 11.5 µg/mL, respectively.
